# Laboratory results published in US8530507B2, “Use of levo-ornidazole in the preparation of anti-anaerobic bacteria infection drugs” (priority 2005, dated 2013).
# Legend:
# mice [1] = experiment: Effect on the hypnotic effect induced by sodium thiopental in mice; conditions: 40 mg/kg sodium thiopental i.p. 30 minutes later
# Experimental: The same volume of 0.9% sodium chloride injection containing propylene glycol was administered in the vehicle control group. 30 minute after drug administration, 40 mg/kg of sodium thiopental was administered to mice by intraperitoneal injection. The time for the loss of righting reflex and the time for the recovery were recorded. The injection volume was 0.2 ml/10 g, the administration rate was 0.2 ml/10 sec.
# mice [2] = experiment: Effects on spontaneous activities in mice; format: in vivo; conditions: for spontaneous activity compared with the vehicle control group: recorded at 0.5, 1, 2, 3 and 4 hours
# Experimental: Chlorpromazine was administered at dose of […] in the positive control group, and the same volume of propylene glycol containing 0.9% sodium chloride injection was administered in the vehicle control group. Spontaneous activity was recorded at 0.5, 1, 2, 3 and 4 hours after drug administration. The injection volume was 0.2 ml/10 g and the administration rate was 0.2 ml/10 sec.
# Fusobacterium nucleatum = experiment: In vitro MIC determination, clinical anaerobic strains; format: cell-based; conditions: 11 clinical strains, GAM broth, 72 hours anaerobic incubation at 35° C.
# Experimental: (§1) Experimental strains: isolated from clinical specimens, and species identification were conducted.
# (§2) Bacilli preparation: 4˜5 bacteria colonies with same pattern selected from anaerobic GAM plate were inoculated in GAM broth with inoculating loop. The bacteria was incubated at 35° C. under anaerobic condition until a slight turbidity was attained, and adjusted by means of sterilized saline (deoxygenated) so as to attain a turbidity equivalent to the No. 0.5 McFarland turbidity tube, then diluted with GAM broth (at 1:200) for later use.
# (§3) MIC (Minimum Inhibitory Concentration) determination: the testing drugs and control drugs were diluted with GAM broth to different concentrations in the test tubes, followed by addition of equal volume of diluted Bacilli (at 1:200), MIC values were read 72 hours after anaerobic incubation at 35° C.
# Clostridium = experiment: as above; format: cell-based; conditions: 6 clinical strains, GAM broth, 72 hours anaerobic incubation at 35° C.
# Experimental: as §1, §2, §3
# Peptostreptococcus = experiment: as above; format: cell-based; conditions: 35 clinical strains, GAM broth, 72 hours anaerobic incubation at 35° C.
# Experimental: as §1, §2, §3
# Veillonella = experiment: as above; format: cell-based; conditions: 23 clinical strains, GAM broth, 72 hours anaerobic incubation at 35° C.
# Experimental: as §1, §2, §3
# Bacteroides = experiment: as above; format: cell-based; conditions: 40 clinical strains, GAM broth, 72 hours anaerobic incubation at 35° C.
# Experimental: as §1, §2, §3
# Kunming mice [3] = experiment: Acute toxicology test, LD50 in mice (Bliss method); format: in vivo; conditions: oral gavage; for Number of dead animals: 10 animals
# mice [4] = experiment: Effect on the coordination of balancing in mice; format: in vivo; conditions: intravenous injection
# Experimental: Experiments were conducted in 9 administration groups, L-, D- and racemic ornidazole were administered to them at doses of 40, 80 and 160 mg/kg. Positive control group received chlorpromazine at a dose of 3 mg/kg.
# mice [5] = experiment: Hypnotic effect of intravenous injection in mice (righting reflex); format: in vivo; conditions: mice, within 30 minutes
# Experimental: White mice, half males and half females, fasted for eight hours. The disappearance of righting reflex in mice was observed. The number of animals who lost their righting reflex was recorded in 30 minutes after drug administration.
# Kunming mice [6] = experiment: Acute toxicology test, LD50 in mice (Bliss method); format: in vivo; conditions: for LD50: observed 14 days; for Number of dead animals: 10 animals
# Experimental: Kunming mice, half males and half females, with body weights of 18˜22 g, were administered the testing drug solution by injection 8 hours after fasting. The death status of animals was consecutively observed for 14 days after administration.
# Beagle dogs = conditions: dog, in vivo, iv, 200 mg/kg
# From the text: 2. Toxicity Test in Beagle Dogs (Non-Rodent) After Intravenous Administration of L-ornidazole for Two Weeks
# Beagle dogs, 4 dogs in each group with half females and half males, were divided into L-, D-, and racemic ornidazole groups.
smiles,measurement,setting,value
"Cc1ncc([N+](=O)[O-])n1C[C@H](O)CCl [L-ornidazole, 1-(3-chloro-2-S-(−)-hydroxypropyl)-2-methyl-5-nitroimidazole]","duration of sleeping induced by sodium thiopental, compared with the vehicle control group",mice [1]; 40 mg/kg intravenous,did not significantly extend
same,"sleep latency induced by sodium thiopental, compared with the vehicle control group",mice [1]; 40 mg/kg intravenous,no significant reduction
same,"duration of sleeping induced by sodium thiopental, compared with the vehicle control group",mice [1]; 80 mg/kg intravenous,significantly extended
same,"sleep latency induced by sodium thiopental, compared with the vehicle control group",mice [1]; 80 mg/kg intravenous,no significant reduction
same,spontaneous activity compared with the vehicle control group,mice [2]; 40 mg/kg intravenous,significant reduction in spontaneous activity was not observed
same,recovery of spontaneous activity,mice [2]; 80 mg/kg intravenous,gradually become normal after 2 hours
same,spontaneous activity compared with the vehicle control group,mice [2]; 80 mg/kg intravenous,reduced significantly at 0.5 and 1 hour
same,recovery of spontaneous activity,mice [2]; 160 mg/kg intravenous,gradually become normal after 3 hours
same,spontaneous activity compared with the vehicle control group,mice [2]; 160 mg/kg intravenous,"reduced significantly at 0.5, 1 and 2 hours"
same,MIC50,Fusobacterium nucleatum,2.0 µg/mL
same,MIC90,Fusobacterium nucleatum,16.0 µg/mL
same,MIC Range,Fusobacterium nucleatum,1.0~16.0 mg/L
same,MIC50,Clostridium,2.0 µg/mL
same,MIC90,Clostridium,2.0 µg/mL
same,MIC Range,Clostridium,1.0~2.0 mg/L
same,MIC50,Peptostreptococcus,4.0 µg/mL
same,MIC90,Peptostreptococcus,8.0 µg/mL
same,MIC Range,Peptostreptococcus,2.0~32.0 mg/L
same,MIC50,Veillonella,4.0 µg/mL
same,MIC90,Veillonella,8.0 µg/mL
same,MIC Range,Veillonella,2.0~8.0 mg/L
same,MIC50,Bacteroides,4.0 µg/mL
same,MIC90,Bacteroides,8.0 µg/mL
same,MIC Range,Bacteroides,20~16.0 mg/L
same,Number of dead animals,Kunming mice [3]; 655.4 mg/kg,0
same,Number of dead animals,Kunming mice [3]; 819.2 mg/kg,1
same,Number of dead animals,Kunming mice [3]; 1024 mg/kg,4
same,Death rate,Kunming mice [3]; 1280 mg/kg,80%
same,Number of dead animals,Kunming mice [3]; 1280 mg/kg,8
same,Probability units (Y),Kunming mice [3]; 1600 mg/kg,6.96
same,effect on the coordination and balance (number of falling animals),mice [4]; 160 mg/kg,no significant effect
same,"effect on the coordination and balance, compared with the vehicle control group",mice [4]; doses of 40 and 80 mg/kg,no significant effect
same,number of mice with loss in righting reflex,mice [5]; individual dose of 160 mg/kg intravenous,No loss in righting reflex
same,loss in righting reflex,mice [5]; individual dose of 40 or 80 mg/kg intravenous,No loss in righting reflex
same,LD50,Kunming mice [6]; intraperitoneal injection,1378 mg/kg
same,Death rate,"Kunming mice [6]; intraperitoneal, 1044 mg/kg",0%
same,Probability units (Y),"Kunming mice [6]; intraperitoneal, 1044 mg/kg",3.27
same,Number of dead animals,"Kunming mice [6]; intraperitoneal, 1044 mg/kg",0
same,Death rate,"Kunming mice [6]; intraperitoneal, 1228 mg/kg",30%
same,Probability units (Y),"Kunming mice [6]; intraperitoneal, 1228 mg/kg",4.24
same,Number of dead animals,"Kunming mice [6]; intraperitoneal, 1228 mg/kg",3
same,Death rate,"Kunming mice [6]; intraperitoneal, 1445 mg/kg",60%
same,Probability units (Y),"Kunming mice [6]; intraperitoneal, 1445 mg/kg",5.20
same,Number of dead animals,"Kunming mice [6]; intraperitoneal, 1445 mg/kg",6
same,Death rate,"Kunming mice [6]; intraperitoneal, 1700 mg/kg",90%
same,Probability units (Y),"Kunming mice [6]; intraperitoneal, 1700 mg/kg",6.17
same,Number of dead animals,"Kunming mice [6]; intraperitoneal, 1700 mg/kg",9
same,Death rate,"Kunming mice [6]; intraperitoneal, 2000 mg/kg",100%
same,Probability units (Y),"Kunming mice [6]; intraperitoneal, 2000 mg/kg",7.13
same,Number of dead animals,"Kunming mice [6]; intraperitoneal, 2000 mg/kg",10
same,LD50,Kunming mice [6]; intravenous injection,332 mg/kg
same,Death rate,"Kunming mice [6]; intravenous, 243 mg/kg",0%
same,Probability units (Y),"Kunming mice [6]; intravenous, 243 mg/kg",1.06
same,Number of dead animals,"Kunming mice [6]; intravenous, 243 mg/kg",0
same,Death rate,"Kunming mice [6]; intravenous, 270 mg/kg",0%
same,Probability units (Y),"Kunming mice [6]; intravenous, 270 mg/kg",3.04
same,Number of dead animals,"Kunming mice [6]; intravenous, 270 mg/kg",0
same,Death rate,"Kunming mice [6]; intravenous, 300 mg/kg",20%
same,Probability units (Y),"Kunming mice [6]; intravenous, 300 mg/kg",3.72
same,Number of dead animals,"Kunming mice [6]; intravenous, 300 mg/kg",2
same,Death rate,"Kunming mice [6]; intravenous, 333 mg/kg",30%
same,Probability units (Y),"Kunming mice [6]; intravenous, 333 mg/kg",5.05
same,Number of dead animals,"Kunming mice [6]; intravenous, 333 mg/kg",3
same,Death rate,"Kunming mice [6]; intravenous, 370 mg/kg",100%
same,Probability units (Y),"Kunming mice [6]; intravenous, 370 mg/kg",6.38
same,Number of dead animals,"Kunming mice [6]; intravenous, 370 mg/kg",10
same,Death rate,"Kunming mice [6]; oral gavage, 655.4 mg/kg",0%
same,Probability units (Y),"Kunming mice [6]; oral gavage, 655.4 mg/kg",2.87
same,Death rate,"Kunming mice [6]; oral gavage, 819.2 mg/kg",10%
same,Probability units (Y),"Kunming mice [6]; oral gavage, 819.2 mg/kg",3.86
same,Death rate,"Kunming mice [6]; oral gavage, 1024 mg/kg",40%
same,Probability units (Y),"Kunming mice [6]; oral gavage, 1024 mg/kg",4.86
same,Probability units (Y),"Kunming mice [6]; oral gavage, 1280 mg/kg",5.86
same,Death rate,"Kunming mice [6]; oral gavage, 1600 mg/kg",100%
same,Number of dead animals,"Kunming mice [6]; oral gavage, 1600 mg/kg",10
same,LD50,Kunming mice [6]; oral gavage,1069 mg/kg
same,food intake and body weight,Beagle dogs,Food intake of testing animals was inhibited while body weight of the testing animals was inhibited to a certain extent
same,histological examination of organs,Beagle dogs,Significant pathological changes were not found
same,manifestations (toxicity and side effects),Beagle dogs,"merely drooling, vomiting, involuntary urination and the like"
same,recovery time of manifestations,Beagle dogs,1 to 2 h
same,toxic effects,Beagle dogs,significant toxic effects were not observed
